Laboratory results taken from PMC11852920, “The Diacylglycerol Acyltransferase 3 of Chlamydomonas reinhardtii Is a Disordered Protein Capable of Binding to Lipids Derived from Chloroplasts” (Biomolecules, 2025).

Biological target: T1, DGAT3 (Chlamydomonas reinhardtii, UniProt A8IMA8)
T1 construct: gene CHLRE_06g310200v5; Trp216, Trp218, Tyr294 (only Trp/Tyr residues); 18 Asp, 22 Glu, 6 Phe, 9 His; chloroplast protein
T1 sequence (A8IMA8 2-346): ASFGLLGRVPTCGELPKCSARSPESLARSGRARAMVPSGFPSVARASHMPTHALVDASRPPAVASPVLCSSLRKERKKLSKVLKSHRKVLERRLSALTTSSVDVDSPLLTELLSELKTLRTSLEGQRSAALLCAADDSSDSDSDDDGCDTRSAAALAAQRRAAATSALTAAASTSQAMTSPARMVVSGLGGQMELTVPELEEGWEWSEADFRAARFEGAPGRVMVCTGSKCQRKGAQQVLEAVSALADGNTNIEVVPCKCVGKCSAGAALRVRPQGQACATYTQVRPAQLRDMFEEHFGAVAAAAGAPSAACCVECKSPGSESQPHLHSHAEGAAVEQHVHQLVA
Experiment: steady-state intrinsic Trp fluorescence anisotropy titration with lipid vesicles
Assay type: binding
Conditions: partition coefficient (protein between water and lipid phase), not a Kd; anionic POPG vesicles (bilayer, not monomeric lipid); 5 uM protein, 50 mM Tris, 100 mM NaCl, 5 mM TCEP, pH 8; 25 °C

Kp: ~ 40,000
Structure (SMILES): CCCCCCCC/C=C\CCCCCCCC(=O)O[C@H](COC(=O)CCCCCCCCCCCCCCC)COP(=O)(O)OCC(O)CO (mixture of isomers) [POPG, 1-palmitoyl-2-oleoyl-sn-glycero-3-phospho-(1′-rac-glycerol)]
